# Reference: patent US20190274975A1, “NANOPARTICLES FOR STIMULATING ELASTOGENESIS” (The Cleveland Clinic Foundation, priority 2013, published 2019)
# Assays:
# [1] = tested on: aneurysmal RASMC cultures; assay: Exogenous DOX on aneurysmal RASMC cultures (previous studies by the inventors); format: cell-based, rat
# [2] = equivalent to standard oral doses; mice and human patients; Ding et al. 2005; cited from earlier work
compound,measurement,setting,value
"C[C@H]1c2cccc(O)c2C(=O)C2=C(O)[C@]3(O)C(=O)C(C(N)=O)=C(O)[C@@H](N(C)C)[C@@H]3[C@@H](O)[C@@H]21 [DOX, doxycycline]",exogenously delivered dose observed to inhibit proliferation and elastic matrix synthesis by EaRASMCs,[1]; observed by the inventors,5.0 µg/mL
same,exogenous DOX dosage that limited the viability of aneurysmal RASMC cultures,[1]; previous studies by the inventors,5.0 µg/mL
same,DOX concentration measured within AAA tissues,[2],~50 ng/mL
